Columns and labels:
rape = experiment: Test B pre/postemergence rape; assay type: in vivo, Brassica napus
In short: (§1)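 Test chemicals in a non-phytotoxic solvent mixture with surfactant were sprayed preemergence onto planted seeds and postemergence onto plants 2 to 18 cm tall (1- to 4-leaf stage). After twelve to sixteen days in a greenhouse, injury was visually rated against untreated controls from 0 (no effect) to 10 (complete control).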

sugar beet = experiment: Test B pre/postemergence sugar beet; assay type: in vivo, Beta vulgaris
In short: as §1

bedstraw = experiment: Test B pre/postemergence bedstraw; assay type: in vivo, Galium aparine
In short: as §1

wheat = experiment: Test B pre/postemergence wheat; assay type: in vivo, Triticum aestivum
In short: as §1

giant foxtail = experiment: Test B pre/postemergence giant foxtail; assay type: in vivo, Setaria faberii
In short: as §1

corn = experiment: Test B pre/postemergence corn; assay type: in vivo, Zea mays
In short: as §1

crabgrass = experiment: Test B pre/postemergence crabgrass; assay type: in vivo, Digitaria sanguinalis
In short: as §1

blackgrass = experiment: Test B pre/postemergence blackgrass; assay type: in vivo, Alopecurus myosuroides
In short: as §1

velvetleaf = experiment: Test B pre/postemergence velvetleaf; assay type: in vivo, Abutilon theophrasti
In short: as §1

wild oat = experiment: Test B pre/postemergence wild oat; assay type: in vivo, Avena fatua
In short: as §1

surinam grass = experiment: Test B pre/postemergence surinam grass; assay type: in vivo, Brachiaria decumbens
In short: as §1

morningglory = experiment: Test B pre/postemergence morningglory; assay type: in vivo, Ipomoea hederacea
In short: as §1

purple nutsedge = experiment: Test B pre/postemergence purple nutsedge; assay type: in vivo, Cyperus rotundus
In short: as §1

pigweed = experiment: Test B pre/postemergence pigweed; assay type: in vivo, Amaranthus retroflexus
In short: as §1

soybean = experiment: Test B pre/postemergence soybean; assay type: in vivo, Glycine max
In short: as §1

cocklebur = experiment: Test B pre/postemergence cocklebur; assay type: in vivo, Xanthium strumarium
In short: as §1

[1] = Postemergence, Rate 62 g/ha, scale 0 to 10, 0 is no effect, 10 is complete control
[2] = Postemergence, Rate 125 g/ha, scale of 0 to 10 where 0 is no effect and 10 is complete control
[3] = Postemergence, Rate 500 g/ha, scale 0 (no effect) to 10 (complete control)
[4] = Preemergence, Rate 250 g/ha, scale 0 (no effect) to 10 (complete control)
[5] = Rate 62 g/ha, Preemergence, scale 0 to 10
[6] = Rate 125 g/ha, Preemergence, scale 0 to 10 (0 no effect, 10 complete control)
[7] = Rate 250 g/ha, Postemergence, scale 0 to 10, 0 is no effect, 10 is complete control
[8] = Rate 500 g/ha, Preemergence, scale 0 to 10 (0 no effect, 10 complete control)

## C#CCn1c(=O)on(C(=O)N(c2ccc(F)cc2F)C(C)C)c1=O [Compound 764]
rape; [1]
  Plant response rating, Rape: 0
rape; [2]
  Rape plant response rating: 0
rape; [3]
  Rape plant response rating: 7
rape; [4]
  Rape plant response rating: 9
rape; [5]
  Rape plant response rating: 0
rape; [6]
  Rape plant response rating: 0
rape; [7]
  Rape plant response rating: 3
rape; [8]
  Rape plant response rating: 10
Sugar beet; [1]
  Plant response rating, Sugarbeets: 0
Sugar beet; [3]
  Sugarbeets plant response rating: 7
Sugar beet; [4]
  Sugarbeets plant response rating: 5
Sugar beet; [5]
  Sugarbeets plant response rating: 0
Sugar beet; [6]
  Sugarbeets plant response rating: 0
Sugar beet; [7]
  Sugarbeets plant response rating: 3
Sugar beet; [8]
  Sugarbeets plant response rating: 8
bedstraw; [1]
  Plant response rating, Bedstraw: 0
bedstraw; [2]
  Bedstraw plant response rating: 5
bedstraw; [3]
  Bedstraw plant response rating: 5
bedstraw; [4]
  Bedstraw plant response rating: 5
bedstraw; [5]
  Bedstraw plant response rating: 0
bedstraw; [6]
  Bedstraw plant response rating: 5
bedstraw; [8]
  Bedstraw plant response rating: 8
wheat; [1]
  Plant response rating, Wheat: 0
wheat; [5]
  Wheat plant response rating: 0
wheat; [6]
  Wheat plant response rating: 3
wheat; [7]
  Wheat plant response rating: 7
wheat; [8]
  Wheat plant response rating: 7
Giant foxtail; [1]
  Plant response rating, Giant foxtail: 3
Giant foxtail; [2]
  Giant foxtail plant response rating: 7
Giant foxtail; [3]
  Giant foxtail plant response rating: 8
Giant foxtail; [4]
  Giant foxtail plant response rating: 10
Giant foxtail; [5]
  Giant foxtail plant response rating: 10
Giant foxtail; [6]
  Giant foxtail plant response rating: 10
Giant foxtail; [7]
  Giant foxtail plant response rating: 8
Giant foxtail; [8]
  Giant foxtail plant response rating: 10
corn; [1]
  Plant response rating, Corn: 0
corn; [2]
  Corn plant response rating: 0
corn; [3]
  Corn plant response rating: 4
corn; [4]
  Corn plant response rating: 6
corn; [5]
  Corn plant response rating: 0
corn; [6]
  Corn plant response rating: 0
corn; [7]
  Corn plant response rating: 0
corn; [8]
  Corn plant response rating: 9
crabgrass; [1]
  Plant response rating, Crabgrass: 0
crabgrass; [2]
  Crabgrass plant response rating: 6
crabgrass; [3]
  Crabgrass plant response rating: 9
crabgrass; [4]
  Crabgrass plant response rating: 10
crabgrass; [5]
  Crabgrass plant response rating: 10
crabgrass; [6]
  Crabgrass plant response rating: 10
crabgrass; [7]
  Crabgrass plant response rating: 9
crabgrass; [8]
  Crabgrass plant response rating: 10
blackgrass; [1]
  Plant response rating, Blackgrass: 3
blackgrass; [2]
  Blackgrass plant response rating: 6
blackgrass; [3]
  Blackgrass plant response rating: 8
blackgrass; [4]
  Blackgrass plant response rating: 8
blackgrass; [5]
  Blackgrass plant response rating: 7
blackgrass; [6]
  Blackgrass plant response rating: 7
blackgrass; [7]
  Blackgrass plant response rating: 6
blackgrass; [8]
  Blackgrass plant response rating: 9
velvetleaf; [1]
  Plant response rating, Velvetleaf: 0
velvetleaf; [3]
  Velvetleaf plant response rating: 4
velvetleaf; [4]
  Velvetleaf plant response rating: 5
velvetleaf; [5]
  Velvetleaf plant response rating: 3
velvetleaf; [6]
  Velvetleaf plant response rating: 5
velvetleaf; [7]
  Velvetleaf plant response rating: 4
velvetleaf; [8]
  Velvetleaf plant response rating: 8
Wild oat; [1]
  Plant response rating, Wild oats: 0
Wild oat; [3]
  Wild oats plant response rating: 3
Wild oat; [4]
  Wild oats plant response rating: 6
Wild oat; [5]
  Wild oats plant response rating: 0
Wild oat; [6]
  Wild oats plant response rating: 3
Wild oat; [7]
  Wild oats plant response rating: 2
Wild oat; [8]
  Wild oats plant response rating: 7
Surinam grass; [1]
  Plant response rating, B. signalgrass: 0
Surinam grass; [2]
  B. signalgrass plant response rating: 0
Surinam grass; Preemergence, Rate 62 g/ha, scale of 0 to 10 where 0 is no effect and 10 is complete control
  B. signalgrass plant response rating: 8
Surinam grass; [4]
  B. signalgrass plant response rating: 9
Surinam grass; [6]
  B. signalgrass plant response rating: 7
Surinam grass; [7]
  B. signalgrass plant response rating: 2
Surinam grass; Rate 500 g/ha, Postemergence, scale 0 to 10, 0 is no effect, 10 is complete control
  B. signalgrass plant response rating: 3
Surinam grass; [8]
  B. signalgrass plant response rating: 10
morningglory; [1]
  Plant response rating, Morningglory: 1
morningglory; [2]
  Morningglory plant response rating: 1
morningglory; [3]
  Morningglory plant response rating: 5
morningglory; [4]
  Morningglory plant response rating: 0
morningglory; [5]
  Morningglory plant response rating: 0
morningglory; [7]
  Morningglory plant response rating: 2
morningglory; [8]
  Morningglory plant response rating: 2
Purple nutsedge; [1]
  Plant response rating, Nutsedge: 0
Purple nutsedge; [2]
  Nutsedge plant response rating: 0
Purple nutsedge; [3]
  Nutsedge plant response rating: 3
Purple nutsedge; [4]
  Nutsedge plant response rating: 0
Purple nutsedge; [5]
  Nutsedge plant response rating: 0
Purple nutsedge; [6]
  Nutsedge plant response rating: 0
Purple nutsedge; [7]
  Nutsedge plant response rating: 0
Purple nutsedge; [8]
  Nutsedge plant response rating: 4
pigweed; [1]
  Plant response rating, Redroot pigweed: 0
pigweed; [2]
  Redroot pigweed plant response rating: 5
pigweed; [3]
  Redroot pigweed plant response rating: 7
pigweed; [4]
  Redroot pigweed plant response rating: 10
pigweed; [5]
  Redroot pigweed plant response rating: 9
pigweed; [6]
  Redroot pigweed plant response rating: 10
pigweed; [7]
  Redroot pigweed plant response rating: 7
pigweed; [8]
  Redroot pigweed plant response rating: 10
soybean; [1]
  Plant response rating, Soybean: 1
soybean; [3]
  Soybean plant response rating: 4
soybean; [4]
  Soybean plant response rating: 3
soybean; [5]
  Soybean plant response rating: 0
soybean; [6]
  Soybean plant response rating: 0
soybean; [7]
  Soybean plant response rating: 3
soybean; [8]
  Soybean plant response rating: 5
cocklebur; [1]
  Plant response rating, Cocklebur: 0
cocklebur; [2]
  Cocklebur plant response rating: 0
cocklebur; [3]
  Cocklebur plant response rating: 5
cocklebur; [4]
  Cocklebur plant response rating: 0
cocklebur; [5]
  Cocklebur plant response rating: 0
cocklebur; [7]
  Cocklebur plant response rating: 2
cocklebur; [8]
  Cocklebur plant response rating: 8

Source: US6737383B1, “Herbicidal oxadiazolidines” (priority 1999, dated 2004)
